Experimental data from patent publication US8399459B2, “1,4 oxazines as BACE1 and/or BACE2 inhibitors” (Hoffmann-La Roche Inc., priority 2011, dated 2013).

How the values were obtained:
P-gp (human MDR1) = molecular target: T1, P-gp (human MDR1) (Homo sapiens, UniProt P08183); assay: p-gp (P-glycoprotein) assay, bidirectional transcellular transport in LLC-PK1 and L-MDR1 cells; type: in vitro ADME; settings: presumably transport efflux ratio (ER)
T1 construct: host or cells: LLC-PK1 (porcine kidney epithelial cell line)
Experimental: p-gp (P-glycoprotein) Assay
Cell Lines and Vesicles Used for Transport Experiments
The LLC-PK1 cell line (ATCC #CL-101) is a porcine kidney epithelial cell line. The MDR1 (Human multidrug resistance protein 1) transfected cell lines were obtained from Dr. A. Schinkel, The Netherlands Cancer Institute (Amsterdam, The Netherlands). All cell lines were cultured on permeable inserts (Costar, 0.33 cm^2 area, pore size 3.0 μm, low density) at 4.5·10^5 cells/cm^2. Transport measurements were performed at day 4 after seeding. Tightness of the cell monolayer was controlled via the permeability of the extracellular marker lucifer yellow (10 μM). […]
The method used for transport experiments was reported Schwab et al. (see above.). […] Concentrations of substrate in both compartments were determined by scintillation counting (digoxin) or by LC-MS/MS. The extracellular marker (lucifer yellow) was quantified using a spectrafluor plus reader at 430/535 nm (Ex/Em). In each experiment 3 different inserts were used for each condition and a mean was calculated. […]
[formula] where Papp, A, C0, and dQ/dt represent the apparent permeability, the filter surface area, the initial concentration, and the amount transported per time period, respectively. Papp values were calculated on the basis of a single time point (2 h). Transport efflux ratios (ER) were calculated as follows: […]

[1] = molecular target: T2, recombinant human cathepsin E (Homo sapiens, UniProt P14091); assay: Cathepsin E fluorescent substrate kinetic assay; type: biochemical; settings: pH 4.5, substrate MR121-[…]
T2 construct: purchased R&D Systems
T2 sequence (P14091 54-396): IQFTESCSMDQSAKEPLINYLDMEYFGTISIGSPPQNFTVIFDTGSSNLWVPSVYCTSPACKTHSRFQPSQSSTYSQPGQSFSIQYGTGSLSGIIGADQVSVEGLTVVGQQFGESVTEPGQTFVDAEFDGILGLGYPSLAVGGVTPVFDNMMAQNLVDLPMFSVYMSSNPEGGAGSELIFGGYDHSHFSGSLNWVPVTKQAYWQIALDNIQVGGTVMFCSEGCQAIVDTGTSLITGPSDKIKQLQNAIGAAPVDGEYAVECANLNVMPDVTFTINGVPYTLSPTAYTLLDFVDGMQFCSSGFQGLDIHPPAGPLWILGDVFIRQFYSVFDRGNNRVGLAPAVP
Description: Cathepsin D and Cathepsin E Fluorescent Substrate Kinetic Assays
The MR121 fluorescence assays described below are based on the fact that MR121 forms a non-fluorescent ground state complex with tryptophan. In solution this formation occurs at millimolar concentrations of tryptophan. The mechanism can be used to design a generic biochemical assay for proteases. A substrate peptide is labeled at the N-terminus with tryptophan and at the C-terminus with the fluorophore MR121 (for cathepsin D the 10 amino acid peptide […]-MR121 was used; for cathepsin E, MR121-[…] was used). In absence of protease activity, the substrates remain intact and the MR121 fluorescence is reduced by the high local Trp-concentration. If the substrates are cleaved by the enzymes the MR121 fluorescence is recovered.
The fluorescent substrate cathepsin D and cathepsin E kinetic assays were performed at room temperature in 384-well microtiter plates (black with clear flat bottom, non binding surface plates from Corning) in a final volume of 51 μl. […] The enzymatic reaction was followed in a plate: vision reader (Perkin Elmer) (excitation wavelength: 630 nm; emission: 695 nm) for at least 30 minutes in a kinetic measurement detecting an increase of MR121 fluorescence during the reaction time. […]

T1 sequence (P08183 whole entry): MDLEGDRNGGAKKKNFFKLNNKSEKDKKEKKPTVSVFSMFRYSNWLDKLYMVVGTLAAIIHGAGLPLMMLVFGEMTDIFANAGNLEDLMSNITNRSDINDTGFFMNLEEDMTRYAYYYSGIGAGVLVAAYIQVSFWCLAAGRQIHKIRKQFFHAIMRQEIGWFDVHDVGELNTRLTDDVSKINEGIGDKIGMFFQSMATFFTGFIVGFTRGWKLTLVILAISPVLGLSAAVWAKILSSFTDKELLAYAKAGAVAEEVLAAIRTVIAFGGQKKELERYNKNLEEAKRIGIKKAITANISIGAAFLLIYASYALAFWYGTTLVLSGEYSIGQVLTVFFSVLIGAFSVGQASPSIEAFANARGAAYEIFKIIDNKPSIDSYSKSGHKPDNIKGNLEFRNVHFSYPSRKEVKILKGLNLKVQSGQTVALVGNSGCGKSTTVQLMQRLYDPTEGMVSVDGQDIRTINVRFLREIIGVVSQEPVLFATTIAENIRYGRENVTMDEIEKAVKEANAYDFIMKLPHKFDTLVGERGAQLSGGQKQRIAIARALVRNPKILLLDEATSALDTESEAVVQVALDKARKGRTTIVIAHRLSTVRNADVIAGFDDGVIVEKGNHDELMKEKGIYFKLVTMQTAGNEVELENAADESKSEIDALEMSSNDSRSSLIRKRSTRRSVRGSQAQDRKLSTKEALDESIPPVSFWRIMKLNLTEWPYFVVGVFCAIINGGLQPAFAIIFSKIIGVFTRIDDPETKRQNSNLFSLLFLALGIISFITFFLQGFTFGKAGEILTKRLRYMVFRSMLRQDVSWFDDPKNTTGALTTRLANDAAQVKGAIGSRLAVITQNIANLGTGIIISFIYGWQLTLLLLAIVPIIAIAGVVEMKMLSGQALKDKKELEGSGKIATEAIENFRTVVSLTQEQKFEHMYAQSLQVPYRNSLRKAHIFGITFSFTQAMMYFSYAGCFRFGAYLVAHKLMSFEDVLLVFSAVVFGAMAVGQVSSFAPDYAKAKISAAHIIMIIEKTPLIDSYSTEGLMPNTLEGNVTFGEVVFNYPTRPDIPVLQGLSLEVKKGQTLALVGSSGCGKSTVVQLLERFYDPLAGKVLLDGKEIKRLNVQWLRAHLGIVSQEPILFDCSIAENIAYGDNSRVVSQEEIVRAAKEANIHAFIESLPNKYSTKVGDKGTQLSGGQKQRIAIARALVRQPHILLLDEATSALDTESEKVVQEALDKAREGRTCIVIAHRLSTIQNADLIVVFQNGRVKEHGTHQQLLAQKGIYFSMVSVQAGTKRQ

Structure (SMILES)	efflux ratio at 2 h (P-gp (human MDR1))	IC50 [1] [µM]
CC1(c2cccc(-c3cc(Cl)cc(Cl)c3)c2)COCC(N)=N1 (stereo not shown) [Example 32, 5-(3′,5′-Dichloro-biphenyl-3-yl)-5-methyl-5,6-dihydro-2H-[1,4]oxazin-3-ylamine]	1.1	3.8
CC1(c2cc(-c3cncnc3)ccc2F)COCC(N)=N1 (stereo not shown) [Example 36, 5-(2-Fluoro-5-pyrimidin-5-yl-phenyl)-5-methyl-5,6-dihydro-2H-[1,4]oxazin-3-ylamine]	11	13
